Calls of active or inactive are those of the source. The calls are words filed in the database; no cut-off is given here.
How the values were obtained:
Mus musculus [1] = assay: Analgetic activity against CF-1 mouse assessed as increase in reaction time at 80 mg/kg, sc by heat stimulus induced tail flick response assay; format: functional, organism-based; parameters: dose 80 mg/kg
Mus musculus [2] = assay: Analgetic activity against CF-1 mouse assessed as increase in reaction time at 160 mg/kg, po by heat stimulus induced tail flick response assay; format: functional, organism-based; parameters: dose 160 mg/kg
Mus musculus [3] = assay: Analgetic activity against CF-1 mouse assessed as increase in reaction time at 320 mg/kg, sc by heat stimulus induced tail flick response assay; format: functional, organism-based; parameters: dose 320 mg/kg
Mus musculus [4] = organism: Mus musculus; assay: Analgetic activity in naloxone challenged mouse assessed as frequency pretreated for 2 day by mouse jumping test; format: functional, organism-based
Mus musculus [5] = assay: Analgetic activity against CF-1 mouse assessed as increase in reaction time at 40 mg/kg, po by heat stimulus induced tail flick response assay; format: functional, organism-based; parameters: dose 40 mg/kg
Mus musculus [6] = assay: Analgetic activity against CF-1 mouse assessed as increase in reaction time at 20 mg/kg, sc by heat stimulus induced tail flick response assay; format: functional, organism-based; parameters: dose 20 mg/kg
Mus musculus [7] = assay: Analgetic activity in sc dosed CF1S mouse assessed as writhing by phenylquinone writhing test; format: functional; conditions: Mus musculus, CF1S, sc; read-out: ED50
Mus musculus [8] = assay: Analgetic activity against CF-1 mouse assessed as increase in reaction time at 320 mg/kg, po by heat stimulus induced tail flick response assay; format: functional, organism-based; parameters: dose 320 mg/kg
Mus musculus [9] = assay: Analgetic activity in po dosed CF1S mouse assessed as writhing by phenylquinone writhing test; format: functional; conditions: Mus musculus, CF1S, po; read-out: ED50
Mus musculus [10] = assay: Analgetic activity against CF-1 mouse assessed as increase in reaction time at 40 mg/kg, sc by heat stimulus induced tail flick response assay; format: functional, organism-based; parameters: dose 40 mg/kg
Mus musculus [11] = assay: Analgetic activity against CF-1 mouse assessed as increase in reaction time at 160 mg/kg, sc by heat stimulus induced tail flick response assay; format: functional, organism-based; parameters: dose 160 mg/kg
Mus musculus [12] = organism: Mus musculus; assay: Analgetic activity in nalorphine challenged mouse assessed as frequency pretreated for 2 day by mouse jumping test; format: functional, organism-based
Mus musculus [13] = assay: Analgetic activity against CF-1 mouse assessed as increase in reaction time at 80 mg/kg, po by heat stimulus induced tail flick response assay; format: functional, organism-based; parameters: dose 80 mg/kg
Mus musculus [14] = assay: Analgetic activity against CF-1 mouse assessed as increase in reaction time at 5 mg/kg, sc by heat stimulus induced tail flick response assay; format: functional, organism-based; parameters: dose 5 mg/kg
Mus musculus [15] = assay: Analgetic activity against CF-1 mouse assessed as increase in reaction time at 10 mg/kg, po by heat stimulus induced tail flick response assay; format: functional, organism-based; parameters: dose 10 mg/kg

In the case of `Cc1ccc(S(=O)(=O)Oc2ccc3c(c2)C2(c4ccccc4)CCN(C)C(C3)C2)cc1` (racemic), the Activity (Mus musculus [1]) is reported as “inactive”.

In the case of `Oc1ccc2c(c1)C1(c3ccccc3)CCNC(C2)C1` (racemic), the Activity (Mus musculus [2]) is reported as “inactive” and the Activity (Mus musculus [3]) is reported as “inactive”.

For `COc1ccc(CC2C=C(c3ccc(Cl)cc3)CCN2C)cc1` (centres undefined), the Activity (Mus musculus [4]) was “inactive” and the Activity (Mus musculus [5]) was “Active”.

In the case of `CN1CCC2(c3ccccc3)CC1Cc1ccccc12` (racemic), the Activity (Mus musculus [6]) is reported as “Active” and the Activity (Mus musculus [5]) is reported as “Active”.

For `COc1ccc2c(c1)C1(c3ccccc3)CCN(CC=C(C)C)C(C2)C1C` (centres undefined), the ED50 (Mus musculus [7]) was over 100 mg/kg and the Activity (Mus musculus [3]) was “inactive”.

For `CC1C2Cc3ccc(O)cc3C1(c1ccccc1)CCN2` (stereo in doubt; 110), the Activity (Mus musculus [8]) was “inactive” and the Activity (Mus musculus [3]) was “inactive”.

`CC1C2Cc3ccc(O)cc3C1(c1ccccc1)CCN2CCc1ccc([N+](=O)[O-])cc1.Cl` (centres undefined) was tested, and the Activity (Mus musculus [8]) was “inactive”, the ED50 (Mus musculus [9]) was over 100 mg/kg and the Activity (Mus musculus [3]) was “inactive”.

For `CN(C)C(=S)Oc1ccc2c(c1)C1(c3ccccc3)CCN(C)C(C2)C1` (racemic), the Activity (Mus musculus [10]) was “inactive” and the Activity (Mus musculus [8]) was “inactive”.

In the case of `Br.CN1CCC2(c3ccccc3)CC1Cc1ccc(F)cc12` (racemic), the ED50 (Mus musculus [9]) is reported as 33 mg/kg and the Activity (Mus musculus [1]) is reported as “inactive”.

For `CCCN1CCC2(c3ccccc3)c3cc(O)ccc3CC1C2C` (stereo in doubt; 173), the Activity (Mus musculus [3]) was “inactive”.

In the case of `c1ccc(C23CCNC(Cc4ccccc42)C3)cc1` (racemic), the Activity (Mus musculus [1]) is reported as “Active”.

`CN1CCC2(c3ccc(Cl)cc3)CC1Cc1ccc(O)cc12` (racemic) was tested, and the Activity (Mus musculus [10]) was “Active”.

With `CC1C2Cc3ccc(O)cc3C1(c1ccccc1)CCN2CCO` (racemic) the Activity (Mus musculus [8]) was “inactive” and the Activity (Mus musculus [11]) was “inactive”.

For `CC1C2Cc3ccc(OC(=O)c4ccccc4Cl)cc3C1(c1ccccc1)CCN2C` (centres undefined), the ED50 (Mus musculus [9]) was 49 mg/kg and the Activity (Mus musculus [12]) was “Active”.

`CC1C2Cc3ccc(O)cc3C1(c1ccccc1)CCN2CC(c1ccccc1)c1ccccc1` (centres undefined) was tested, and the Activity (Mus musculus [2]) was “inactive”.

In the case of `C/C(Cl)=C\CN1CCC2(c3ccccc3)c3cc(O)ccc3CC1C2C` (centres undefined), the ED50 (Mus musculus [7]) is reported as over 100 mg/kg and the Activity (Mus musculus [1]) is reported as “inactive”.

In the case of `CCOC(=O)CNC(=O)Oc1ccc2c(c1)C1(c3ccccc3)CCN(C)C(C2)[C@H]1C` (some centres undefined), the Activity (Mus musculus [10]) is reported as “Active” and the Activity (Mus musculus [13]) is reported as “Active”.

With `C#CCN1CCC2(c3ccccc3)c3cc(O)ccc3CC1C2C` (centres undefined) the Activity (Mus musculus [4]) was “inactive”.

`CN1CCC2(c3ccccc3)CC1Cc1cc(O)c(O)c(O)c12` (racemic) was tested, and the Activity (Mus musculus [2]) was “inactive”.

For `CN1CCC2(c3ccccc3)CC1Cc1ccc(O)cc12` (racemic), the Activity (Mus musculus [6]) was “Active”.

With `Oc1ccc2c(c1)C1(c3ccccc3)CCN(CC3CCC3)C(C2)C1` (stereo in doubt; 145) the Activity (Mus musculus [4]) was “inactive”.

With `CN1CCC2(c3ccc(Cl)cc3)CC1Cc1ccccc12` (racemic) the Activity (Mus musculus [2]) was “Active” and the Activity (Mus musculus [1]) was “Active”.

`CC1C2Cc3ccc(O)cc3C1(c1ccccc1)CCN2C` (racemic) was tested, and the Activity (Mus musculus [14]) was “Active” and the Activity (Mus musculus [15]) was “Active”.

For `Br.CCN1CCC2(c3ccccc3)CC1Cc1ccccc12` (racemic), the ED50 (Mus musculus [7]) was 16 mg/kg and the Activity (Mus musculus [3]) was “inactive”.

For `Br.CC1=C(c2ccccc2)CCN(C)C1Cc1ccccc1` (centres undefined), the ED50 (Mus musculus [7]) was 45 mg/kg and the Activity (Mus musculus [11]) was “Active”.

With `c1ccc(CCN2CCC3(c4ccccc4)CC2Cc2ccccc23)cc1` (centres undefined) the Activity (Mus musculus [11]) was “inactive”.

For `CC(=O)Oc1ccc2c(c1)C1(c3ccccc3)CCN(CC=C(C)C)C(C2)C1C` (centres undefined), the Activity (Mus musculus [3]) was “inactive”.

`Br.CN1CCC(c2ccccc2)=CC1Cc1ccccc1` (centres undefined) was tested, and the Activity (Mus musculus [10]) was “Active”, the ED50 (Mus musculus [7]) was 6.6 mg/kg and the ED50 (Mus musculus [9]) was 37 mg/kg. For the same compound, the Activity (Mus musculus [4]) was “inactive”.

`CN1CCC(c2ccccc2)=CC1Cc1ccc(F)cc1` (centres undefined) was tested, and the Activity (Mus musculus [1]) was “Active”.

For `CCC1=C(c2ccccc2)CCN(C)C1Cc1ccc(O)cc1` (centres undefined), the Activity (Mus musculus [4]) was “inactive” and the Activity (Mus musculus [1]) was “Active”.

For `Oc1ccc2c(c1)C1(c3ccc(Cl)cc3)CCNC(C2)C1` (racemic), the Activity (Mus musculus [3]) was “inactive”.

In the case of `Oc1ccc2c(c1)C1(c3ccccc3)CCN(CCCc3ccccc3)C(C2)C1` (racemic), the Activity (Mus musculus [2]) is reported as “Active” and the ED50 (Mus musculus [9]) is reported as over 100 mg/kg.

For `CCCCCN1CCC2(c3ccccc3)c3cc(OC(C)=O)ccc3CC1C2C` (centres undefined), the Activity (Mus musculus [14]) was “Active” and the Activity (Mus musculus [5]) was “Active”.

`CC1C2Cc3ccc(O)cc3C1(c1ccccc1)CCN2C` (centres undefined) was tested, and the Activity (Mus musculus [6]) was “Active” and the Activity (Mus musculus [5]) was “Active”.

With `CC1C2Cc3ccc(O)cc3C1(c1ccccc1)CCN2CCc1ccccc1` (racemic) the Activity (Mus musculus [6]) was “Active” and the Activity (Mus musculus [5]) was “Active”.

In the case of `CC1C2Cc3ccccc3C1(c1ccccc1)CCN2C` (racemic), the Activity (Mus musculus [10]) is reported as “Active” and the Activity (Mus musculus [13]) is reported as “Active”.

For `COc1ccc2c(c1)C1(c3ccccc3)CCNC(C2)C1.Cl` (centres undefined), the ED50 (Mus musculus [7]) was 100 mg/kg and the Activity (Mus musculus [3]) was “inactive”.

From ChEMBL document CHEMBL3244027, “Syntheses, analgetic activity, and physical dependence capacity of 5-phenyl-6,7-benzomorphan derivatives” (J Med Chem, 1979)
